Source: US6355799B1, “Substituted benzene compounds, process for their preparation, and herbicidal and defoliant compositions containing them” (ISK Americas Incorporated, priority 1997, dated 2002)

How the values were obtained:
Format in all cases: in vivo
[1] = test system: large crabgrass (Digitaria sanguinalis, DIGSA); assay: Pre-emerge test, greenhouse herbicide activity screening; settings: phytotoxicity rating 0-100, 14 days after application
Procedure, shortened: (§1)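 Compounds in acetone were track-sprayed at 15–1000 g ai/ha: pre-emergence onto soil sown the previous day, then top-watered to incorporate and later bottom-watered; post-emergence onto 2–3 leaf plants with 0.25% v/v surfactant, bottom-watered only. Ratings on a 0–100 phytotoxicity scale were taken at day 14.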

[2] = test system: ivyleaf morningglory (Ipomoea hederacea, IPOHE); assay: as above; settings: phytotoxicity rating 0-100, 14 days after application
Procedure, shortened: as §1

[3] = test system: common ragweed (Ambrosia artemisizfolia L., AMBEL); assay: as above; settings: phytotoxicity rating 0-100, 14 days after application
Procedure, shortened: as §1

[4] = test system: green foxtail (Setaria viridis, SETVI); assay: as above; settings: phytotoxicity rating 0-100, 14 days after application
Procedure, shortened: as §1

[5] = test system: velvetleaf (Abutilon theophrasti, ABUTH); assay: as above; settings: phytotoxicity rating 0-100, 14 days after application
Procedure, shortened: as §1

[6] = test system: johnsongrass (Sorghum halepense, SORHA); assay: as above; settings: phytotoxicity rating 0-100, 14 days after application
Procedure, shortened: as §1

[7] = test system: sicklepod (Cassia obtusifolia, CASOB); assay: as above; settings: phytotoxicity rating 0-100, 14 days after application
Procedure, shortened: as §1

[8] = test system: lambsquarters (Chenopodium album, CHEAL); assay: as above; settings: phytotoxicity rating 0-100, 14 days after application
Procedure, shortened: as §1

[9] = test system: barnyardgrass (Echinochloa crus-galli, ECHCG); assay: as above; settings: phytotoxicity rating 0-100, 14 days after application
Procedure, shortened: as §1

[10] = test system: upland rice (Oryza sp., var. Tebonnet, RICE); assay: Pre-emerge test, crop safety; settings: crop damage rating 0-100, 14 days after application
Procedure, shortened: (§2)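 Herbicidal damage is scored 0 (none) to 100 (complete plant death) two weeks after a simulated field spray. Rates span 15–1000 g ai/ha, delivered in acetone at 187 l/ha. For post-emergence treatments, plants have 2–3 leaves and the spray carries 0.25% v/v non-ionic surfactant.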

[11] = test system: field corn (Zea mays L., var. Dekalb 535, CORN); assay: Pre-emerge test, crop safety; settings: crop damage rating 0-100, 14 days after application
Procedure, shortened: as §2

[12] = test system: large crabgrass (Digitaria sanguinalis, DIGSA); assay: Post-emerge test, greenhouse herbicide activity screening; settings: post-emerge, 14 days after application, rating scale 0-100
Procedure, shortened: (§3)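 Plants grown in 10 cm pots of sandy loam mix received acetone-dissolved compounds through a moving flat-fan nozzle. Doses ranged from 15 to 1000 g ai/ha. Pre-emerge pots were seeded one day earlier, post-emerge pots 8–21 days earlier. Fourteen days on, each pot was graded 0–100 for damage.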

[13] = test system: ivyleaf morningglory (Ipomoea hederacea, IPOHE); assay: as above; settings: post-emerge, 14 days after application, rating scale 0-100
Procedure, shortened: as §3

[14] = test system: common ragweed (Ambrosia artemisizfolia L., AMBEL); assay: as above; settings: post-emerge, 14 days after application, rating scale 0-100
Procedure, shortened: as §3

[15] = test system: green foxtail (Setaria viridis, SETVI); assay: as above; settings: post-emerge, 14 days after application, rating scale 0-100
Procedure, shortened: as §3

[16] = test system: velvetleaf (Abutilon theophrasti, ABUTH); assay: as above; settings: post-emerge, 14 days after application, rating scale 0-100
Procedure, shortened: as §3

[17] = test system: johnsongrass (Sorghum halepense, SORHA); assay: as above; settings: post-emerge, 14 days after application, rating scale 0-100
Procedure, shortened: as §3

[18] = test system: redroot pigweed (Amaranthus retroflexus, AMARE); assay: as above; settings: post-emerge, 14 days after application
Procedure, shortened: as §3

[19] = test system: sicklepod (Cassia obtusifolia, CASOB); assay: as above; settings: post-emerge, 14 days after application, rating scale 0-100
Procedure, shortened: as §3

[20] = test system: lambsquarters (Chenopodium album, CHEAL); assay: as above; settings: post-emerge, 14 days after application, rating scale 0-100
Procedure, shortened: as §3

[21] = test system: barnyardgrass (Echinochloa crus-galli, ECHCG); assay: as above; settings: post-emerge, 14 days after application, rating scale 0-100
Procedure, shortened: as §3

[22] = test system: upland rice (Oryza sp., var. Tebonnet, RICE); assay: Post-emerge test, crop safety; settings: post-emerge, 14 days after application, rating scale 0-100
Procedure, shortened: (§4)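 Rating: 0–100 visual injury, 14 DAA. Application: acetone, 187 l/ha, 15–1000 g ai/ha, flat-fan track sprayer with nozzle 40–45 cm above soil or canopy. Post-emerge runs used 0.25% v/v surfactant on 2–3 leaf plants.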

[23] = test system: field corn (Zea mays L., var. Dekalb 535, CORN); assay: Post-emerge test, crop safety; settings: post-emerge, 14 days after application, rating scale 0-100
Procedure, shortened: as §4

[24] = test system: redroot pigweed (Amaranthus retroflexus, AMARE); assay: Pre-emerge test, greenhouse herbicide activity screening; settings: phytotoxicity rating 0-100, 14 days after application
Procedure, shortened: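 Sandy loam pots; pre-emerge: sown 1 d pre-spray, surface-watered after, then bottom-watered. Post-emerge: sown 8–21 d before, 2–3 leaf stage, + 0.25% v/v NIS, bottom-watered. Acetone, 187 l/ha track spray, 15–1000 g ai/ha. 0–100 injury score, day 14.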

Cn1c(C(F)(F)F)cc(=O)n(-c2c(F)cc(Cl)c(O)c2NC(=O)c2ccc3ccccc3c2)c1=O [Compound 2-194, 2-(2,4-chloro-6-fluoro-3-hydroxy-2-naphthoylamidophenyl)-1-methyl-6-trifluoromethyl-2,4(1H, 3H)-pyrimidinedione]
Pre-emerge Herbicidal Activity DIGSA ([1]; 63 g ai/ha): 0 | Pre-emerge Herbicidal Activity DIGSA ([1]; 250 g ai/ha): 10 | Pre-emerge Herbicidal Activity IPOHE ([2]; 63 g ai/ha): 0 | Pre-emerge Herbicidal Activity IPOHE ([2]; 250 g ai/ha): 20 | Pre-emerge Herbicidal Activity AMBEL ([3]; 63 g ai/ha): 0 | Pre-emerge Herbicidal Activity AMBEL ([3]; 250 g ai/ha): 0 | Pre-emerge Herbicidal Activity SETVI ([4]; 63 g ai/ha): 0 | Pre-emerge Herbicidal Activity SETVI ([4]; 250 g ai/ha): 20 | Pre-emerge Herbicidal Activity ABUTH ([5]; 63 g ai/ha): 90 | Pre-emerge Herbicidal Activity ABUTH ([5]; 250 g ai/ha): 100 | Pre-emerge Herbicidal Activity SORHA ([6]; 63 g ai/ha): 0 | Pre-emerge Herbicidal Activity SORHA ([6]; 250 g ai/ha): 0 | Pre-emerge Herbicidal Activity CASOB ([7]; 63 g ai/ha): 0 | Pre-emerge Herbicidal Activity CASOB ([7]; 250 g ai/ha): 10 | Pre-emerge Herbicidal Activity CHEAL ([8]; 63 g ai/ha): 40 | Pre-emerge Herbicidal Activity CHEAL ([8]; 250 g ai/ha): 85 | Pre-emerge Herbicidal Activity ECHCG ([9]; 63 g ai/ha): 0 | Pre-emerge Herbicidal Activity ECHCG ([9]; 250 g ai/ha): 0 | Pre-emerge Herbicidal Activity RICE ([10]; 63 g ai/ha): 0 | Pre-emerge Herbicidal Activity RICE ([10]; 250 g ai/ha): 10 | Pre-emerge Herbicidal Activity CORN ([11]; 63 g ai/ha): 0 | Pre-emerge Herbicidal Activity CORN ([11]; 250 g ai/ha): 0 | phytotoxicity rating DIGSA ([12]; 63 g ai/ha): 0 | phytotoxicity rating DIGSA ([12]; 250 g ai/ha): 20 | phytotoxicity rating IPOHE ([13]; 63 g ai/ha): 95 | phytotoxicity rating IPOHE ([13]; 250 g ai/ha): 99 | phytotoxicity rating AMBEL ([14]; 63 g ai/ha): 95 | phytotoxicity rating AMBEL ([14]; 250 g ai/ha): 90 | phytotoxicity rating SETVI ([15]; 63 g ai/ha): 20 | phytotoxicity rating SETVI ([15]; 250 g ai/ha): 20 | phytotoxicity rating ABUTH ([16]; 63 g ai/ha): 95 | phytotoxicity rating ABUTH ([16]; 250 g ai/ha): 100 | phytotoxicity rating SORHA ([17]; 63 g ai/ha): 0 | phytotoxicity rating SORHA ([17]; 250 g ai/ha): 10 | phytotoxicity rating AMARE ([18]; 63 g ai/ha, rating scale 0-100 (0 no damage, 100 complete death)): 99 | phytotoxicity rating AMARE ([18]; 250 g ai/ha, rating scale 0-100): 99 | phytotoxicity rating CASOB ([19]; 63 g ai/ha): 50 | phytotoxicity rating CASOB ([19]; 250 g ai/ha): 70 | phytotoxicity rating CHEAL ([20]; 63 g ai/ha): 90 | phytotoxicity rating CHEAL ([20]; 250 g ai/ha): 100 | phytotoxicity rating ECHCG ([21]; 63 g ai/ha): 0 | phytotoxicity rating ECHCG ([21]; 250 g ai/ha): 10 | phytotoxicity rating RICE (crop damage) ([22]; 63 g ai/ha): 30 | phytotoxicity rating RICE (crop damage) ([22]; 250 g ai/ha): 40 | phytotoxicity rating CORN (crop damage) ([23]; 63 g ai/ha): 5 | phytotoxicity rating CORN (crop damage) ([23]; 250 g ai/ha): 5 | Pre-emerge Herbicidal Activity AMARE ([24]; 63 g ai/ha): 75 | Pre-emerge Herbicidal Activity AMARE ([24]; 250 g ai/ha): 100
